This is an account of results in PMC11338861, “Assessment of the potential risk of oteseconazole and two other tetrazole antifungals to inhibit adrenal steroidogenesis and peripheral metabolism of corticosteroids” (Frontiers in Pharmacology, 2024).

One test addresses T1, CYP11A1 (Homo sapiens, UniProt P05108).
T1 sequence (P05108 40-521): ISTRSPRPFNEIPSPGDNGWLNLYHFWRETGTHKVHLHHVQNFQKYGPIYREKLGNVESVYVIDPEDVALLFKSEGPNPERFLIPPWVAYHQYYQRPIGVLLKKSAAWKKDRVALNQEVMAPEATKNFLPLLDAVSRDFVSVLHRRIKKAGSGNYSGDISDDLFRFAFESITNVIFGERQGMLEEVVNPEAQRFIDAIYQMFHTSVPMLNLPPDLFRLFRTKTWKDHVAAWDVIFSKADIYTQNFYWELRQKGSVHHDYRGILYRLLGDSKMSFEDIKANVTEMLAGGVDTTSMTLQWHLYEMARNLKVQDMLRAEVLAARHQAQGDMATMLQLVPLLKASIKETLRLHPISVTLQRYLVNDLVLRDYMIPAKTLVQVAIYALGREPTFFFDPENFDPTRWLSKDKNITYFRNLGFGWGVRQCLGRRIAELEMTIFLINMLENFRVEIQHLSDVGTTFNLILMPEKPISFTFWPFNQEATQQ
T1 sequence (P10109 61-184 partner): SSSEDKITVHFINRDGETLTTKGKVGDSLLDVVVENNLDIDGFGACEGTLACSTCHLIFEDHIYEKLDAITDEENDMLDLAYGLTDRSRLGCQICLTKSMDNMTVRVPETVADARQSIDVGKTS
In words: mitochondrial fraction of transfected V79-4 cells, pregnenolone ELISA. Format: cell-based. Background: In an ELISA, binding on a coated surface is turned into a signal by an enzyme label.

The next test deals with T2, CYP11B1 (Homo sapiens, UniProt P15538).
T2 sequence (P15538 25-503): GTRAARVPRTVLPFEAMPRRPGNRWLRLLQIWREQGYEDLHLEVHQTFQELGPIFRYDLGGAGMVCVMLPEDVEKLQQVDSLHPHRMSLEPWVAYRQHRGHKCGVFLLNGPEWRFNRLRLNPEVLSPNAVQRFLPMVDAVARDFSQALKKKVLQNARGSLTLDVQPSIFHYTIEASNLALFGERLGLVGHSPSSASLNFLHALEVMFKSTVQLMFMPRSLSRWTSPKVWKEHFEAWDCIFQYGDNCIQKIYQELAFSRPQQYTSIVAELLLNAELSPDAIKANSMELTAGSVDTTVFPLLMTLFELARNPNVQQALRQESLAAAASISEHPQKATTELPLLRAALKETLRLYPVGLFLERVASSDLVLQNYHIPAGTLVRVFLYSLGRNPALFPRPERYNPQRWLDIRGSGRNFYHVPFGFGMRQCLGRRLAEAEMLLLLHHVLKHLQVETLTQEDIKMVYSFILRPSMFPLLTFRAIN
In words: mitochondrial fraction of V79-CYP11B1 cells, 11-DOC to corticosterone, UHPLC-MS/MS. Format: cell-based.

A further test has as its target T3, CYP17A1 (Homo sapiens, UniProt P05093).
T3 sequence (P05093 1-508): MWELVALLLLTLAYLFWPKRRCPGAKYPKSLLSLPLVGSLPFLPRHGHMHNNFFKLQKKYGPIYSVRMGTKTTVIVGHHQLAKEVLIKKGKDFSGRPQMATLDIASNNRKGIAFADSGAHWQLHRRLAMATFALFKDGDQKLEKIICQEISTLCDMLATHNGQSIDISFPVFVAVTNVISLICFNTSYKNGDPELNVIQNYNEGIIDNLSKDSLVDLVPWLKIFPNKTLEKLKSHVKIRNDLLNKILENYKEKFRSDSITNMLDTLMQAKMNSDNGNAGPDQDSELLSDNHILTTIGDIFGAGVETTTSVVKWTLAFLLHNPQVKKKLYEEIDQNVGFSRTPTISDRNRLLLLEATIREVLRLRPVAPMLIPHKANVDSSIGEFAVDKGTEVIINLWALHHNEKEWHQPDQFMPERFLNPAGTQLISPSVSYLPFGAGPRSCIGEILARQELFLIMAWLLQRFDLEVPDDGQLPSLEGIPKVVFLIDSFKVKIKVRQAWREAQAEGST
T3 sequence (P16435 2-677 partner): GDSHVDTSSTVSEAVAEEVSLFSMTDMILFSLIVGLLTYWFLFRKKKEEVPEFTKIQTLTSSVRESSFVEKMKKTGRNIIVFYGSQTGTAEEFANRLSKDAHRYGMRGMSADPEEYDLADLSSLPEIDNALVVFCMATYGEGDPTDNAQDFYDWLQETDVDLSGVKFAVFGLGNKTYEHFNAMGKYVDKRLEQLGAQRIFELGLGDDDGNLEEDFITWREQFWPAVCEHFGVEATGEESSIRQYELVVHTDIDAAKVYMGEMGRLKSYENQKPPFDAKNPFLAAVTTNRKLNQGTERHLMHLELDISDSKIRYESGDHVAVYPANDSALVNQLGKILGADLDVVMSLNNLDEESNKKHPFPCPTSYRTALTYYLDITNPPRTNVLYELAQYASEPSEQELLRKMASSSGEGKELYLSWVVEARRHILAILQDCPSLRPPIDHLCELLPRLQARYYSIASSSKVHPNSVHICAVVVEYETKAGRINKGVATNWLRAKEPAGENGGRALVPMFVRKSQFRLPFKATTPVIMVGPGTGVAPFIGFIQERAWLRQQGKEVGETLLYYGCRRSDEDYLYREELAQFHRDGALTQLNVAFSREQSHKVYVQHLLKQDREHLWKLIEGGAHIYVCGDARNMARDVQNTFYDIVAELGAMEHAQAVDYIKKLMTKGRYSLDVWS
In words: […]α-hydroxylase activity, microsomes of transfected COS-1 cells, radiolabeled progesterone, TLC ([…],20-lyase IC50 […]). Format: biochemical.

A further test has as its target T4, CYP21A2 (Homo sapiens, UniProt P08686).
T4 sequence (P08686 1-495): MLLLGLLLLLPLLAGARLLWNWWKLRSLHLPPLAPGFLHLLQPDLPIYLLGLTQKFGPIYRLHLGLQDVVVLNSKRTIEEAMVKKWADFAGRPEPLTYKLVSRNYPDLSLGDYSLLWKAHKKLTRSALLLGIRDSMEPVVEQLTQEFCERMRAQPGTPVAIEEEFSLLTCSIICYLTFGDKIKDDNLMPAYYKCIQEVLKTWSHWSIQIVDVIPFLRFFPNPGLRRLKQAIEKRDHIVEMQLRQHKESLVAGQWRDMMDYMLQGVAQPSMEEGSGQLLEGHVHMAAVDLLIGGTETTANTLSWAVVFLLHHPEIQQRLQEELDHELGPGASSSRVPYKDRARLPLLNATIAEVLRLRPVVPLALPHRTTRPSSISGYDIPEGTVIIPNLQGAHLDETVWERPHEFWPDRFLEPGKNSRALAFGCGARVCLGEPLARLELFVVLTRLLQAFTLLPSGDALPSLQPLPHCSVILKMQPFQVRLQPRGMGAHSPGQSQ
T4 sequence (P16435 2-677 partner): T3 sequence (P16435 2-677 partner)
In words: cell-free activity assay, microsomes of transfected COS-1 cells, progesterone to 11-DOC. Format: biochemical.

Consider `CC(=O)N1CCN(c2ccc(OC[C@H]3CO[C@](Cn4ccnc4)(c4ccc(Cl)cc4Cl)O3)cc2)CC1` (racemic) [ketoconazole, reference compound], for which the inhibition (commonly the percentage by which the read-out fell short of the control) at 10 µM on CYP11A1 was around 55%. Further, the “mitochondrial fraction of V79-CYP11B1 cells, 11-DOC to corticosterone, UHPLC-MS/” value on CYP11B1 is listed as “measuring the conversion of 11-DOC to corticosterone, with ketoconazole serving as positive control”.
`O[C@@](Cn1cnnn1)(c1ccc(F)cc1F)C(F)(F)c1ccc(-c2ccc(OCC(F)(F)F)cc2)cn1` [oteseconazole] came in with an inhibition at 10 µM on CYP11A1 of around 35%. Besides, the IC50 (commonly the point on the concentration scale where inhibition reaches its midpoint) was determined as 13.2 ± 3.9 µM at CYP17A1 and 13.8 ± 1.9 µM against CYP21A2.
In the case of `O[C@@](Cn1cnnn1)(c1ccc(F)cc1F)C(F)(F)c1ccc(-c2ccc(OC(F)(F)F)cc2)cn1` [quilseconazole], the inhibition at 10 µM on CYP11A1 is around 45%.
